Each substance was assayed against USP30 (Homo sapiens (Human), UniProt Q70CQ3) (assay: USP30 biochemical FP or FI IC50 assay). Conditions: read-out: IC50 range.
Protocol: In Vitro USP30 FP Inhibition Assay
USP30 Biochemical IC50 Assay
(§1) Dilution plates were prepared at 21 times the final concentration (2100 μM for a final concentration of 100 μM) in 50% DMSO in a 96-well polypropylene V-bottom plate (Greiner #651201). A typical 8-point dilution series would be 100, 30, 10, 3, 1, 0.3, 0.1, 0.03 μM final. Reactions were performed in duplicate in black 384 well plates (small volume, Greiner 784076) in a final reaction volume of 21 μl. Either 1 μl of 50% DMSO or diluted compound was added to the plate. USP30 was diluted in reaction buffer (40 mM Tris, pH 7.5, 0.005% Tween 20, 0.5 mg/ml BSA, 5 mM—beta-mercaptoethanol) to the equivalent of 0.05 µl/well and 10 μl of diluted USP30 was added to the compound. Enzyme and compound were incubated for 30 min at room temp. Reactions were initiated by the addition of 50 nM of TAMRA labelled peptide linked to ubiquitin via an iso-peptide bond as fluorescence polarisation substrate. Reactions were read immediately after addition of substrate and following a 2 hr incubation at room temperature. Readings were performed on a Pherastar Plus (BMG Labtech). λ Excitation 540 nm; λ Emission 590 nm.
In Vitro USP30 FI Inhibition Assay
USP30 Biochemical Fluorescence Intensity IC50 Assay
as §1, with “0.001 μl/well” for “0.05 µl/well”, “Ubiquitin-Rhodamine 110 (U-555; Boston Biochem) at a final concentration” for “50 nM”, “100 nM.” for “TAMRA labelled peptide linked to ubiquitin via an iso-peptide bond as fluorescence polarisation substrate.”, “h” for “hr”, “487” for “540”, “535” for “590”

Sequence of USP30 (Q70CQ3 57-517): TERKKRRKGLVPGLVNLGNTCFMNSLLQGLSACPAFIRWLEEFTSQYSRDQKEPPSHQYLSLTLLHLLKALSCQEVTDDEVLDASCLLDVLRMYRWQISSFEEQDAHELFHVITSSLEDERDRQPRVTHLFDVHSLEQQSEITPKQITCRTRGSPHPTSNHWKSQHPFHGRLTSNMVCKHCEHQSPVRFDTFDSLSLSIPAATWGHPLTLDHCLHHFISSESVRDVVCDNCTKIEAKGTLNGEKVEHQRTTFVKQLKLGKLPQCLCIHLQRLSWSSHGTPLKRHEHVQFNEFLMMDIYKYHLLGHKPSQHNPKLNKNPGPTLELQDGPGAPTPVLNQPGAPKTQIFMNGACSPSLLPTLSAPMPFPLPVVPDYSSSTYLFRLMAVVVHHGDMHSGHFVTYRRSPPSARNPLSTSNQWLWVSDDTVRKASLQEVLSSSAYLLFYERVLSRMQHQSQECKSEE

Substance | IC50 [nM]
(R)-3-(1H-benzo [d]imidazol-2-yl)- N-(1-cyano pyrrolidin-3- yl)azetidine-1- carboxamide [Example 134] | 100 to 1000
(R)-N-(1-cyano pyrrolidin-3-yl)- 3-phenoxy azetidine- 1-carboxamide [Example 133] | 100 to 1000
N-(1-cyanopyrrolidin-3-yl)-6-(4- phenoxypiperidin-1- yl)nicolinamide [Example 22] | 100 to 1000
N-((R)-1-cyano pyrrolidin-3-yl)- ((2S,6R)-2,6- dimethyl morpholino)- 5-fluoroiso nicotinamide [Example 140] | 100 to 1000
rac-(3aR, 6aR)-1-(3-phenyl-1II- pyrazole-5- carbonyl)hexahydropyrrolo[3,4- b]pyrrole-5(1H)-carbonitrile [Example 52] | 100 to 1000
